Measurements: PMC6813295, “A tumour-selective cascade activatable self-detained system for drug delivery and cancer imaging” (Nature Communications, 2019)
Where a SMILES comes first, the peptide text is derived from it. The star is where a group is joined. X1 = CC1(C)C(=CC=C2CCCC(C=CC3=[N+](CCCCCC(=O)O)c4ccccc4C3(C)C)=C2*)N(CCCCCC(=O)O)c2ccccc21

Assays:
H460 and 293T cells = experiment: Confocal imaging of accumulation and retention in cells, H460 versus 293T; format: cell-based, human; settings: 50 μM for 1 h, washed, at 6 h (maximum difference), cytoplasm, n = 15
Description: (§1) Fig. 3 Recognition and self-assembly of molecule 1 in cells. a Western blots of XIAP expression in H460 and 293T cells. b Confocal images of H460 cells treated with or without energy-dependent inhibitor (oligomycin A, 20 μM) for 1 h, and followed by washing with PBS and treated with the molecule 1 (50 μM) for 1 h. c Statistical analysis of average fluorescence intensities in the cytoplasm of H460 cells from confocal images. Data are presented as the mean ± s.d. (n = 100). ***p < 0.001, p values were performed with one-way ANOVA followed by post hoc Tukey’s test for the indicated comparison. d Confocal images of time-dependent monitoring of H460 and 293T cells treated with the molecule 1 (50 μM) for 1 h followed by washing with PBS and replacing the medium and a further incubation up to 48 h. e Statistical analysis of average fluorescence intensities in the cytoplasm of H460 and 293T cells from confocal images with a timescale range of 1–48 h. Data are presented as the mean ± s.d. […] Finally, incubate up to 6 h and imaging by confocal microscope. g Schematic diagram illustrates the process of NBD fluorescence illumination. h Confocal images of H460 cells treatment with molecule 1-NBD (50 μM) for 1 h. i TEM images of ultrathin section of H460 cells treated with molecule I-1 (50 μM) and without the molecule I-1 for up to 12 h. […]

H460 cells = format: cell-based, human; settings: confocal
Description: as §1

[1] = system: human bladder tumour tissues; experiment: Ex vivo NIR imaging of human intact bladder after intravesical instillation; settings: 70 mL of 50 μM in PBS pH 7.4 instilled, 37 °C, 1 h
Description: After obtaining approval from the institutional review board of the Fourth Hospital of Harbin Medical University, patients with urothelial carcinoma were scheduled for radical cystectomy and appropriate informed consent was obtained. Fresh intact bladder was obtained from the operating room immediately after radical cystectomy and irrigated three times for 5 min via an 18-French (Fr) urinary catheter with sterile saline, and 70 mL of molecule 1 in PBS (50 μM, pH 7.4) was instilled and incubated at 37 °C for 1 h. Then, the unbound molecule 1 was removed by irrigating with sterile saline three times for 5 min, the bladder was opened longitudinally on the anterior wall. Ex vivo fluorescent and white light imaging of the bladder cancer was performed using a near infrared imaging system. To explore the correlation between appearance of fluorescent signal and cancer lesions, standard pathological analysis of represented fluorescent spots were carried out after imaging.

CC[C@H](C)[C@H](NC(=O)[C@@H]1CCCN1C(=O)[C@@H](NC(=O)[C@H](C)N)C(C)C)C(=O)N[C@@H](C)C(=O)N[C@@H](CCC(N)=O)C(=O)N[C@@H](CCCCN)C(=O)N[C@@H](CC(=O)O)C(=O)N[C@@H](CCC(=O)O)C(=O)N[C@H](C(=O)N[C@@H](CC(=O)O)C(=O)N[C@@H](CCCCN)C(=O)N[C@@H](CC(C)C)C(=O)N[C@H](C(=O)N[C@@H](Cc1ccccc1)C(=O)N[C@@H](Cc1ccccc1)C(=O)N[C@@H](C)C(=O)N[C@@H](CCC(=O)O)C(=O)N[C@@H](CSC1=C(C=CC2=[N+](CCCCCC(=O)O)c3ccccc3C2(C)C)CCCC1=CC=C1N(CCCCCC(=O)O)c2ccccc2C1(C)C)C(=O)NCC(=O)O)C(C)C)C(C)C [molecule 1] (H-AVPIAQKDEVDKLVFFAEC(X1)G-OH)
fluorescent intensity in H460 cells relative to 293T cells (H460 and 293T cells): fivefold higher
uptake pathway into cells (H460 cells; H460, filipin III 5 μg/ml, chlorpromazine 10 μg/ml, amiloride 10 μM, 1 h, 50 μM 2 h, 37 °C): caveolin-mediated endocytic pathway
internalization into cells, energy dependence (H460 cells; H460, oligomycin A 20 μM 1 h, then 50 μM 1 h, n = 100): energy-dependent
signal-to-noise ratio of the tumour area versus surrounding normal tissue [1]: up to 2.7 times
